Test system: A2780 (human ovarian cancer)
Assay: Antiproliferative activity against drug-sensitive human A2780 cells

IC50 [µM] | SMILES
23.5 | CC(C)=CCC/C(C)=C/Cc1c(O)cc2c(c1O)C(=O)[C@H](O)[C@@H](c1ccc(O)cc1)O2 [BONANNIOL A]
11.5 | CC(C)=CCC/C(C)=C/Cc1c(O)cc2c(c1O)C(=O)[C@H](O)[C@@H](c1ccc(O)c(O)c1)O2 [DIPLACOL]
10.5 | CC(C)=CCC/C(C)=C/Cc1c(O)cc2c(c1O)C(=O)C[C@@H](c1ccc(O)c(O)c1)O2 [NYMPHAEOL A]

SMILES | IC50 [µM]
CC(C)=CCC/C(C)=C/Cc1c(O)cc2c(c1O)C(=O)C[C@@H](c1ccc(O)cc1)O2 [BONANNIONE A] | 24.5

From ChEMBL document CHEMBL1142962, “Antiproliferative prenylated stilbenes and flavonoids from Macaranga alnifolia from the Madagascar rainforest” (J Nat Prod, 2007)
